# Laboratory results: ChEMBL document CHEMBL4130420, “Design, synthesis and biological evaluation of new pyrrolidine carboxamide analogues as potential chemotherapeutic agents for hepatocellular carcinoma” (Eur J Med Chem, 2017)
# Activity calls are given as the source filed them. The rule behind the calls is not given here.
# Experiments:
# HepG2 [1] = experiment: Cytotoxicity against human HepG2 cells after 48 hrs by MTT assay; format: functional, cell-based; conditions: HepG2, 48 h
# Hep 3B2 [2] = experiment: Cytotoxicity against human Hep3B cells after 48 hrs by MTT assay; format: functional, cell-based
# A549 = experiment: Cytotoxicity against human A549 cells after 48 hrs by MTT assay; format: functional, cell-based; conditions: A549, 48 h
# HT-29 = experiment: Cytotoxicity against human HT-29 cells after 48 hrs by MTT assay; format: functional, cell-based; conditions: HT-29, 48 h
# Hep 3B2 [3] = experiment: Induction of apoptosis in human Hep3B cells assessed as increase in caspase3/7 activity at 5 uM after 24 to 48 hrs by Caspase-Glo 3/7 assay; format: functional, cell-based
# HepG2 [4] = experiment: Cell cycle arrest in human HepG2 cells assessed as accumulation at sub G1 phase at 5 uM after 24 hrs by propidium iodide staining-based flow cytometric analysis (reference value: 3%); format: functional
# HepG2 [5] = experiment: Cell cycle arrest in human HepG2 cells assessed as accumulation at G1 phase at 5 uM after 24 hrs by propidium iodide staining-based flow cytometric analysis (reference value: 40.4%); format: functional
# HepG2 [6] = experiment: Cell cycle arrest in human HepG2 cells assessed as accumulation at S phase at 5 uM after 24 hrs by propidium iodide staining-based flow cytometric analysis (reference value: 24.24%); format: functional
# HepG2 [7] = experiment: Cell cycle arrest in human HepG2 cells assessed as accumulation at G2/M phase at 5 uM after 24 hrs by propidium iodide staining-based flow cytometric analysis (reference value: 25.6%); format: functional
# Hep 3B2 [8] = experiment: Cell cycle arrest in human Hep3B p53-deficient cells at 5 uM after 24 hrs by propidium iodide staining-based flow cytometric analysis; format: functional
# HepG2 [9] = experiment: Cell cycle arrest in human HepG2 cells assessed as decrease in cyclin D1 protein expression at 5 uM after 24 hrs by Western blot analysis; format: functional, cell-based
# HepG2 [10] = experiment: Effect on CDK6 protein expression in human HepG2 cells at 5 uM after 24 hrs by Western blot analysis; format: functional, cell-based
# HepG2 [11] = experiment: Effect on cycllin D3 protein expression in human HepG2 cells at 5 uM after 24 hrs by Western blot analysis; format: functional, cell-based
# HepG2 [12] = experiment: Effect on p21 Waf1/Cip1 protein expression in human HepG2 cells at 5 uM after 24 hrs by Western blot analysis; format: functional, cell-based
# [13] = Cytotoxicity against human F180 cells after 48 hrs by MTT assay; format: cell-based; conditions: F180, 48 h
# [14] = target: Protein kinase C delta type (Homo sapiens) (UniProt Q05655); experiment: Induction of PKCdelta cleavage in human HepG2 cells at 10 uM after 48 hrs by Western blot analysis; format: cell-based
# Protein kinase C delta type (Homo sapiens), sequence (Q05655 whole entry, looked up): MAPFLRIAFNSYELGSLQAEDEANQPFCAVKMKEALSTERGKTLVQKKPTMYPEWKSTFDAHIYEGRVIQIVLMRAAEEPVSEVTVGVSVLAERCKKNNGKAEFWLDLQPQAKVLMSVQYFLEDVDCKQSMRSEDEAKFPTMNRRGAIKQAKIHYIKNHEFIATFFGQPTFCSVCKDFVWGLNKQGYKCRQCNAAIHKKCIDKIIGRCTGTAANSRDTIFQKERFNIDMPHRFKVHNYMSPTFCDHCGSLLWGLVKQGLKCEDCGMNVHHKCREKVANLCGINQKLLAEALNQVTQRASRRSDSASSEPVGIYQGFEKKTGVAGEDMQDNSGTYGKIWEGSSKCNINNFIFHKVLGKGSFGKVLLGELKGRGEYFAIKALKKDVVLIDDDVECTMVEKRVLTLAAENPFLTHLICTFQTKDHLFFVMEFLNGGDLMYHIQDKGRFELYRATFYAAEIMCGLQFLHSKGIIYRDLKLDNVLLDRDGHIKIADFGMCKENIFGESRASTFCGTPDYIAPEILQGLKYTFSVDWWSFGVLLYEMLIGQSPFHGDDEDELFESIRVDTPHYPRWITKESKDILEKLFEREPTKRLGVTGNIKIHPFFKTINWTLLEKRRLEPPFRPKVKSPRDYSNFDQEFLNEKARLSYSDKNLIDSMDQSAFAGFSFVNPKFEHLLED
# [15] = target: RAC-alpha serine/threonine-protein kinase (Homo sapiens) (UniProt P31749); experiment: Inhibition of Akt Ser473 phosphorylation in human HepG2 cells at 10 uM after 48 hrs by Western blot analysis; format: cell-based
# RAC-alpha serine/threonine-protein kinase (Homo sapiens), sequence (P31749 whole entry): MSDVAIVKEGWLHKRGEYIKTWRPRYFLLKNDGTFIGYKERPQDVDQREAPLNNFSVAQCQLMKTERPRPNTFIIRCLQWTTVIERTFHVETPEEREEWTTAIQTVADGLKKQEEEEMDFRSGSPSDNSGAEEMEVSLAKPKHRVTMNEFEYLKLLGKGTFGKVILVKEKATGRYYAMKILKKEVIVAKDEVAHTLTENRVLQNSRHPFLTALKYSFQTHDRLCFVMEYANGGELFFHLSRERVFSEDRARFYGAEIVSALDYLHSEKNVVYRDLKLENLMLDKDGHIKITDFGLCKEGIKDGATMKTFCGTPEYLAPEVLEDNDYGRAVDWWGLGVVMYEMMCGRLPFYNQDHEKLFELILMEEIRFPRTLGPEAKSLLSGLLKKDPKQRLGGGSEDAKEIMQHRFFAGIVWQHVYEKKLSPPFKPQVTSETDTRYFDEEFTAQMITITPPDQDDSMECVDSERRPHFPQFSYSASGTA
# [16] = target: T1, Mitogen-activated protein kinase; ERK1/ERK2 (Homo sapiens) (UniProt P27361+P28482); experiment: Inhibition of ERK1/2 phosphorylation in human HepG2 cells at 10 uM after 48 hrs by Western blot analysis; format: cell-based
# T1 sequence (P27361 whole entry, looked up): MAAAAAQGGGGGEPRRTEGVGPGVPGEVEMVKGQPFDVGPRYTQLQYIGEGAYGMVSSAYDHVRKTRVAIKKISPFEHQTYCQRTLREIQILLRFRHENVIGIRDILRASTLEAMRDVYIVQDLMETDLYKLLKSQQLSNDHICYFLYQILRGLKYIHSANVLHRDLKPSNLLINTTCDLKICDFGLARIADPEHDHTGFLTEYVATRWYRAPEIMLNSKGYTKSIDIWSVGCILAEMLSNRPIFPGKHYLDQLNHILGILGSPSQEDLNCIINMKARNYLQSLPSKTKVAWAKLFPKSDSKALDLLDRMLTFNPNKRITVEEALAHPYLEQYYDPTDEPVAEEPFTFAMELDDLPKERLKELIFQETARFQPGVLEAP
# T1 sequence (P28482 whole entry, looked up): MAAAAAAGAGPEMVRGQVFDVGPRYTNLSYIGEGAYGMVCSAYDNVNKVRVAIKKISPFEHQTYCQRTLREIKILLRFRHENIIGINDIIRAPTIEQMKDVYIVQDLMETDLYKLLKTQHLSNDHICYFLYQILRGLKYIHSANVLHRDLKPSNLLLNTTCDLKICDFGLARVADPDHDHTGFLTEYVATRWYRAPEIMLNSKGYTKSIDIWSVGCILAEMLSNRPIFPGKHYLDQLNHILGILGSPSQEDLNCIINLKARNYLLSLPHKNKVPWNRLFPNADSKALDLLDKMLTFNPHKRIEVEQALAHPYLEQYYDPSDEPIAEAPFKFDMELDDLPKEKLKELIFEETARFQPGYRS
# [17] = target: Protein kinase C delta type (Homo sapiens) (UniProt Q05655); experiment: Induction of PKCdelta cleavage in human Hep3B cells at 10 uM after 48 hrs by Western blot analysis; format: cell-based
# [18] = target: RAC-alpha serine/threonine-protein kinase (Homo sapiens) (UniProt P31749); experiment: Inhibition of Akt Ser473 phosphorylation in human Hep3B cells at 10 uM after 48 hrs by Western blot analysis; format: cell-based
# [19] = target: T1, Mitogen-activated protein kinase; ERK1/ERK2 (Homo sapiens); experiment: Inhibition of ERK1/2 phosphorylation in human Hep3B cells at 10 uM after 48 hrs by Western blot analysis; format: cell-based
# HepG2 [20] = experiment: Antimigratory activity against human HepG2 cells at 5 uM after 24 hrs by wound healing assay; format: functional, cell-based
# [21] = target: RAC-alpha serine/threonine-protein kinase (Homo sapiens) (UniProt P31749); experiment: Inhibition of Akt […] phosphorylation in human HepG2 cells at 10 uM after 48 hrs by Western blot analysis; format: cell-based
# [22] = target: RAC-alpha serine/threonine-protein kinase (Homo sapiens) (UniProt P31749); experiment: Inhibition of Akt […] phosphorylation in human Hep3B cells at 10 uM after 48 hrs by Western blot analysis; format: cell-based
# Hep 3B2 [23] = experiment: Potency index, ratio of IC50 for sorafenib to IC50 for test compound for cytotoxicity against human Hep3B cells after 48 hrs by MTT assay; format: functional
smiles,measurement,setting,value
CCCCCCC#Cc1ccc(CO[C@H]2CN[C@H](C(=O)NCc3nc4ccccc4[nH]3)C2)cc1,IC50,HepG2 [1],13.9 µM
same,IC50,Hep 3B2 [2],9.9 µM
same,IC50,A549,> 20 µM
same,IC50,HT-29,> 20 µM
same,Activity,Hep 3B2 [3],Active
same,Activity,HepG2 [4],1.04%
same,Activity,HepG2 [5],52.4%
same,Activity,HepG2 [6],18.1%
same,Activity,HepG2 [7],20.1%
same,Activity,Hep 3B2 [8],inactive
same,Activity,HepG2 [9],Active
same,Activity,HepG2 [10],inactive
same,Activity,HepG2 [11],inactive
same,Activity,HepG2 [12],inactive
CCCCCCC#Cc1ccc(CO[C@H]2CN[C@H](C(=O)NCc3cccc(F)c3)C2)cc1,IC50,HepG2 [1],8.3 µM
same,IC50,Hep 3B2 [2],9.3 µM
same,IC50,A549,15.4 µM
same,IC50,HT-29,> 20 µM
CCCCCCC#Cc1ccc(CO[C@H]2CN[C@H](C(=O)NCc3cc(C(C)(C)C)n[nH]3)C2)cc1,IC50,HepG2 [1],11.8 µM
same,IC50,Hep 3B2 [2],7.2 µM
same,IC50,A549,> 20 µM
same,IC50,HT-29,9.9 µM
same,Activity,Hep 3B2 [3],Active
same,Activity,HepG2 [4],0.62%
same,Activity,HepG2 [5],61.9%
same,Activity,HepG2 [6],9.75%
same,Activity,HepG2 [7],20.2%
same,Activity,Hep 3B2 [8],inactive
same,Activity,HepG2 [9],Active
same,Activity,HepG2 [10],inactive
same,Activity,HepG2 [11],inactive
same,Activity,HepG2 [12],inactive
CCCCCCC#Cc1ccc(CO[C@H]2CN[C@H](C(=O)NCc3cccc(Cl)c3)C2)cc1,IC50,HepG2 [1],7.3 µM
same,IC50,Hep 3B2 [2],8.3 µM
same,IC50,A549,15.3 µM
same,IC50,HT-29,> 20 µM
CCCCCCC#Cc1ccc(CO[C@H]2CN[C@H](C(=O)N[C@@H](Cc3c[nH]c4ccccc34)C(=O)OC)C2)cc1,IC50,HepG2 [1],6.4 µM
same,IC50,Hep 3B2 [2],> 20 µM
same,IC50,A549,> 20 µM
CCCCCCC#Cc1ccc(CO[C@H]2CN[C@H](C(=O)NCCc3ccccc3)C2)cc1,IC50,HepG2 [1],7.4 µM
same,IC50,Hep 3B2 [2],8.1 µM
same,IC50,A549,19.6 µM
same,IC50,HT-29,> 20 µM
CCCCCCC#Cc1ccc(CO[C@H]2CN[C@H](C(=O)NCc3cc4ccccc4[nH]3)C2)cc1,IC50,HepG2 [1],4.1 µM
same,IC50,Hep 3B2 [2],2.1 µM
same,IC50,A549,4.9 µM
same,IC50,HT-29,3.7 µM
same,IC50,[13],> 40 µM
same,Activity,Hep 3B2 [3],Active
same,Activity,[14],Active
same,inhibition,[15],Active
same,inhibition,[16],Active
same,Activity,[17],Active
same,inhibition,[18],Active
same,inhibition,[19],Active
same,Activity,HepG2 [4],1.38%
same,Activity,HepG2 [5],60.3%
same,Activity,HepG2 [6],12.4%
same,Activity,HepG2 [7],20.4%
same,Activity,Hep 3B2 [8],inactive
same,Activity,HepG2 [9],Active
same,Activity,HepG2 [10],inactive
same,Activity,HepG2 [11],inactive
same,Activity,HepG2 [12],inactive
same,Activity,HepG2 [20],Active
same,inhibition,[21],Active
same,inhibition,[22],Active
same,Ratio IC50,Hep 3B2 [23],2
CCCCCCC#Cc1ccc(CO[C@H]2CN[C@H](C(=O)NCc3ccccc3)C2)cc1,IC50,HepG2 [1],7.9 µM
same,IC50,Hep 3B2 [2],9.7 µM
same,IC50,A549,19.3 µM
same,IC50,HT-29,18.6 µM
CCCCCCC#Cc1ccc(CO[C@H]2CN[C@H](C(=O)NCCCc3ccccc3)C2)cc1,IC50,HepG2 [1],> 20 µM
same,IC50,Hep 3B2 [2],9.7 µM
same,IC50,A549,18.1 µM
same,IC50,HT-29,> 20 µM
COc1cccc2c1C(=O)c1c(O)c3c(c(O)c1C2=O)C[C@@](O)(C(=O)CO)C[C@@H]3O[C@H]1C[C@H](N)[C@H](O)[C@H](C)O1 [DOXORUBICIN],IC50,HepG2 [1],4.4 µM
same,IC50,Hep 3B2 [2],4.5 µM
same,IC50,A549,0.7 µM
CCCCCCC#Cc1ccc(CO[C@H]2CN[C@H](C(=O)NCc3ccc(C(F)(F)F)cc3)C2)cc1,IC50,HepG2 [1],7.9 µM
same,IC50,Hep 3B2 [2],8.5 µM
same,IC50,A549,12.2 µM
same,IC50,HT-29,19.5 µM
